According to publication PMC4029172 (eLife, 2014):
In brackets after ≈: the same amount, converted by molar mass. Numbered stars: 1 amine (or outer) side, 2 acyl side, 3 side chain; on linkers, the order of the positions; unused ones are H or OH. Bridge positions count the residues as written; N and C are the ends. Square brackets hold non-standard residues; d marks the D form. Peptide text beside a SMILES is read from it. * marks the point of attachment. X5 = C[C@@H](Oc1ccc([C@H](N[*:1])C(=O)[*:2])cc1)[C@](O)(/C=C/C(=O)[*:3])CBr; X4 = CC(Oc1ccc(C(N[*:1])C(=O)[*:2])cc1)C(O)(C=CC(=O)[*:3])CCl; Pentanoyl(2R-Me,3R-OH,4-Me) = CC(C)[C@@H](O)[C@@H](C)C(=O)*; d(aIle) = CC[C@H](C)[C@@H](N)C(=O)O; d(aThr) = C[C@@H](O)[C@@H](N)C(=O)O; NMeF = CN[CH](Cc1ccccc1)C(=O)O; X3 = CC(C)C(O)C(C)C(=O)*

Key:
[1] = system: E. coli D21f2tolC Sal-resistant mutants; assay: Cross-resistance levels of Sal-resistant mutants; format: cell-based, Escherichia coli; conditions: wild-type reference of Figure 4B
[2] = system: E. coli D21f2tolC Rif-, Stl-, CBR703-, Myx- and Lpm-resistant mutants; assay: Cross-resistance levels of Rif-, Stl-, CBR703-, Myx- and Lpm-resistant mutants; format: cell-based, Escherichia coli; conditions: wild-type reference of Figure 4C
[3] = biological target: T1, E. coli RNAP holoenzyme (Escherichia coli, UniProt P0A8T7+P0A8V2); format: biochemical
[4] = biological target: T1, E. coli RNAP holoenzyme; format: biochemical; remark: listed apart in the source
[5] = system: E. coli D21f2tolC; assay: Resistance rates (fluctuation assays); conditions: each agent at 2 × MIC
[6] = system: Bacillus anthracis Vollum 1B; assay: microbe, parasite or virus in culture; format: cell-based; conditions: VOLLUM1B
[7] = system: Enterobacter cloacae ATCC 13047; assay: microbe, parasite or virus in culture; format: cell-based; conditions: ATCC13047
[8] = system: Haemophilus influenzae ATCC 49247; assay: microbe, parasite or virus in culture; format: cell-based; conditions: ATCC49247
[9] = system: Neisseria gonorrhoeae ATCC 19424; assay: microbe, parasite or virus in culture; format: cell-based; conditions: ATCC19424
[10] = system: Burkholderia mallei CHN7; assay: microbe, parasite or virus in culture; format: cell-based
[11] = system: Pseudomonas aeruginosa ATCC 10145; assay: microbe, parasite or virus in culture; format: cell-based; conditions: ATCC10145
[12] = system: Moraxella catarrhalis ATCC 25238; assay: microbe, parasite or virus in culture; format: cell-based; conditions: ATCC25238
[13] = system: Yersinia pestis CO92; assay: microbe, parasite or virus in culture; format: cell-based
[14] = biological target: Staphylococcus aureus RNAP (Staphylococcus aureus, UniProt Q5HID2+Q5HID3); assay: biochemical
[15] = biological target: Escherichia coli RNAP (Escherichia coli, UniProt P0A8T7+P0A8V2); assay: biochemical
[16] = biological target: Thermus thermophilus RNAP (Thermus thermophilus, UniProt Q8RQE8+Q8RQE9); assay: biochemical
[17] = system: E. coli D21f2tolC spontaneous Sal-resistant mutants; assay: Resistance levels of spontaneous Sal-resistant mutants; format: cell-based, Escherichia coli; conditions: for resistance level, all mutants: all 21 spontaneous Sal-resistant substitutions
[18] = system: E. coli D21f2tolC; assay: Frequency of spontaneous Sal-resistant mutants; format: cell-based, Escherichia coli; conditions: E. coli D21f2tolC plated on agar containing Sal; listed as Sal
[19] = biological target: T1, E. coli RNAP holoenzyme; assay: biochemical
[20] = system: E. coli D21f2tolC; assay: Macromolecular synthesis in bacterial cells in culture; format: cell-based, Escherichia coli; conditions: 2 x MIC; 0-30 min
Protocol: Macromolecular synthesis assays were performed essentially as in [Cotsonas King and Wu, 2009]. E. coli D21f2tolC ([Fralick and Burns-Keliher, 1994]) was cultured in 10 ml LB broth ([Sambrook and Russell, 2001]) at 37°C with shaking until OD600 = 0.4–0.8, and cultures were diluted with LB broth to OD600 = 0.167. Aliquots (90 µl) were dispensed into wells of a 96-well plate; were supplemented with 7 µl of pre-warmed 4 µCi/ml [^14C]-thymidine, 10 µCi/ml [^14C]-uracil, or 30 µCi/ml [^14C]-amino acid mix (PerkinElmer, Waltham, MA); were incubated 10 min at 37°C with shaking; were supplemented with 3 µl 3.3 µg/ml SalA in methanol (final concentration = 2 × MIC), 3 µl 13 µg/ml Rif in methanol (final concentration = 2 × MIC), or 3 µl solvent blank; and incubated at 37°C with shaking. At time points 0, 10, 20, and 30 min after the addition of SalA, Rif, or solvent blank, rows of samples were transferred to a second 96-well plate, containing 100 µl ice-cold 10% trichloroacetic acid (TCA) in each well, and the second plate was incubated on ice. 1 hr after the final time point, TCA precipitates were collected by filtration onto glass-fiber filters (Filtermat A; PerkinElmer; pre-rinsed twice with 5% TCA), washed with 2 × ∼300 µl 5% TCA, washed with 3 × ∼300 µl water, and washed with 2 × ∼300 µl 10% ethanol, using a Packard FilterMate 196 Cell Harvester with Matrix Filter upper head assembly (PerkinElmer). Filters were dried under a heat lamp, wrapped in a single layer of plastic wrap, and exposed to a storage phosphor screen for 18–19 hr, and analyzed by storage-phosphor scanning (Typhoon; GE Healthcare).

[21] = biological target: T1, E. coli RNAP holoenzyme; format: biochemical; remark: listed apart in the source
[22] = biological target: T1, E. coli RNAP holoenzyme; format: biochemical; remark: listed apart in the source
[23] = system: E. coli RNAP core enzyme; format: biochemical, Escherichia coli
[24] = system: wild-type or ΔTL E. coli RNAP core enzyme; format: biochemical, Escherichia coli
[25] = system: E. coli D21f2tolC plasmid-borne induced Sal-resistant mutants

Sequence of Staphylococcus aureus RNAP (P0A0J0 whole entry): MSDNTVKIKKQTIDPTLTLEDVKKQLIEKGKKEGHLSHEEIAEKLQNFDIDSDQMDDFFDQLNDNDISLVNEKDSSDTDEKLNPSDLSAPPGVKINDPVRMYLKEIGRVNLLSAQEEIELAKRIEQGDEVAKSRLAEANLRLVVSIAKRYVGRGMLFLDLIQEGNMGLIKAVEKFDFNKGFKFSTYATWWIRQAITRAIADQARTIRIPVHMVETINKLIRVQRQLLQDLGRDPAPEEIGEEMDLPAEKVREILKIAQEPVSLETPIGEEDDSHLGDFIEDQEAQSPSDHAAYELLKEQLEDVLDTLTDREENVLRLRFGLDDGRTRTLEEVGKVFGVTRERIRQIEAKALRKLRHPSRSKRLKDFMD
Sequence of Staphylococcus aureus RNAP (Q5HID3 whole entry): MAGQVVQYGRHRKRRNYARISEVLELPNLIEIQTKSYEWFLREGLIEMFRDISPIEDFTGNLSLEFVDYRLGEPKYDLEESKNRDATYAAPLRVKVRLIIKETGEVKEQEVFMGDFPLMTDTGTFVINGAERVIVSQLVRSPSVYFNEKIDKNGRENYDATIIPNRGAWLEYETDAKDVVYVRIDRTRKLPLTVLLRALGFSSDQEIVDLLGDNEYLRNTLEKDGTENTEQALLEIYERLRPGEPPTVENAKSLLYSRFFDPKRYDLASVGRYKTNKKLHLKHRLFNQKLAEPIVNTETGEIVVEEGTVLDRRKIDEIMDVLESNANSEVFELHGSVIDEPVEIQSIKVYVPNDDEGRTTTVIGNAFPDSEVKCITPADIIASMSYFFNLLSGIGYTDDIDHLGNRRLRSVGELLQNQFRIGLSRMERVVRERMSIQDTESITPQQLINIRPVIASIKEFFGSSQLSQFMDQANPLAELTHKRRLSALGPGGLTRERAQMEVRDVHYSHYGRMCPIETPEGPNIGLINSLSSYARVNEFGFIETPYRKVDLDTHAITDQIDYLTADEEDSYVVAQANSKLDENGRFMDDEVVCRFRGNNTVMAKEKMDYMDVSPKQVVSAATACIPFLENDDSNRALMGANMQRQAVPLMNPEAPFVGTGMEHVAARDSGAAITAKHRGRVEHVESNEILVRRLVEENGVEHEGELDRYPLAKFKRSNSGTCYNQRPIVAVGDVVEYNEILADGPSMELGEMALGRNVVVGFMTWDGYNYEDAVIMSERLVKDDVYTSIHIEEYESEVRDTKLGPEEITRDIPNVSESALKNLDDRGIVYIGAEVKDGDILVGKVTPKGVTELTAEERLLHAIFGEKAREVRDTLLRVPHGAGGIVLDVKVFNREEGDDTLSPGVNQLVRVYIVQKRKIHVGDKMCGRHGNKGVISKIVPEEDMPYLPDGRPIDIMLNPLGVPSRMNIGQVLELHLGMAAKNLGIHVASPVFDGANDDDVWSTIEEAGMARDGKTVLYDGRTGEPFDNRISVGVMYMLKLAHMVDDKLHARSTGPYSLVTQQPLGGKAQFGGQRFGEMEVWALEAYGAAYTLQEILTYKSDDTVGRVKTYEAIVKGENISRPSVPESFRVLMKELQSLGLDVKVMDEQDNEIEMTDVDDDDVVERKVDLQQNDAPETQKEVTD
Sequence of Staphylococcus aureus RNAP (Q5HDY4 whole entry, further chain): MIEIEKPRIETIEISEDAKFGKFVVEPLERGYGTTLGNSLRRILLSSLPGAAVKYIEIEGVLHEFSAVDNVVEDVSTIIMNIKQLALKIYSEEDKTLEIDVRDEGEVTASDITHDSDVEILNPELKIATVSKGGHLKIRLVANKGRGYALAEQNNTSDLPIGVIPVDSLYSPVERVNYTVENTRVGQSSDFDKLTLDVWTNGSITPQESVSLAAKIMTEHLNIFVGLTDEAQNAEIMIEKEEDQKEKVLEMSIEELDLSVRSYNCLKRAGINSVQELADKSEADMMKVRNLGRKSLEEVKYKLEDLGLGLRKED
Sequence of Staphylococcus aureus RNAP (Q5HID2 whole entry): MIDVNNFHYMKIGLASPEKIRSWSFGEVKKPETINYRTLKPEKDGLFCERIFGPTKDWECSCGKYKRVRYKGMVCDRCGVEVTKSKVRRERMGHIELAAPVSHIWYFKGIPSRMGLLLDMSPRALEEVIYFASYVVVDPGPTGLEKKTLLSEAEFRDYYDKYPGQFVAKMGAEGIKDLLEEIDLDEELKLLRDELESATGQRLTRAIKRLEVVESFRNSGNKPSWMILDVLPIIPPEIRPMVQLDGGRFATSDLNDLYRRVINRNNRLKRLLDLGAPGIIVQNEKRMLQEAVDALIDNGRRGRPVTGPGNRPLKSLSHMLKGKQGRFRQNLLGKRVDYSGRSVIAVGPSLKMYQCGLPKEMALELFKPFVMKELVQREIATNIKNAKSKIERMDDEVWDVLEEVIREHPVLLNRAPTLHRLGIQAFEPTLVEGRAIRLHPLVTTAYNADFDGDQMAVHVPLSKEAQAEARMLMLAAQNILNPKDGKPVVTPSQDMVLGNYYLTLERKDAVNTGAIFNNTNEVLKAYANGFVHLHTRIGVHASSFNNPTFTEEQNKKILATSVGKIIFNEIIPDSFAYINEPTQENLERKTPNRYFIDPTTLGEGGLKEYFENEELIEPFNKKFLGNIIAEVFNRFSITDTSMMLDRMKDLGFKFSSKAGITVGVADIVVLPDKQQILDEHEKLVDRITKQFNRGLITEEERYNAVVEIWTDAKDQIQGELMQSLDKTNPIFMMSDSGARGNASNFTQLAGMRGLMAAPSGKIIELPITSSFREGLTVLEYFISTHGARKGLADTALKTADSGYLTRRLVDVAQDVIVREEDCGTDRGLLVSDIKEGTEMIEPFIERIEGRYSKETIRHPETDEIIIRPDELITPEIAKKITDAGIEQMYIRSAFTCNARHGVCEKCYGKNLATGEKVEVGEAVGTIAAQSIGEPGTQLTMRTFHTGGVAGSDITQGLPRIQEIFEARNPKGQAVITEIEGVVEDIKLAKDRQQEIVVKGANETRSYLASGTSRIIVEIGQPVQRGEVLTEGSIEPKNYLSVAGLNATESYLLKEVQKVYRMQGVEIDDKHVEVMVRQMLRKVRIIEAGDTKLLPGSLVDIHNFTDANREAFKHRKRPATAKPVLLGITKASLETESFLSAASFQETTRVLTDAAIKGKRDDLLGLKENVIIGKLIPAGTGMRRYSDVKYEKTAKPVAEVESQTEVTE

Question: What does the source list for CO[C@H]1/C=C/O[C@@]2(C)Oc3c(C)c(O)c4c(O)c(c(/C=N/N5CCN(C)CC5)c(O)c4c3C2=O)NC(=O)/C(C)=C\C=C\[C@H](C)[C@H](O)[C@@H](C)[C@@H](O)[C@@H](C)[C@H](OC(C)=O)[C@@H]1C [Rif, rifampin]?
Answer: MICwild-type [1]: 0.20 µg/mL; MICwild-type [2]: 0.20 µg/mL; effect on nucleotide addition in primer-dependent transcription initiation [3]: does not inhibit the first nucleotide-addition step; effect on nucleotide addition in transcription elongation [4]: do not inhibit transcription elongation

Question: How did the MICwild-type [1] turn out when CNC(=O)[C@@H](C)[C@H]1C(=O)/C(=C(O)/C=C/C(C)=C/[C@@H](C)[C@H]2O[C@@]3(C)O[C@H](C=C[C@@]34CO4)[C@@H]2C)C(=O)N1[C@@H]1CC[C@H](O)[C@H](C)O1 [Stl, streptolydigin] was run?
Answer: 3.13 µg/mL

Question: What about the MICwild-type [2] of the same molecule?
Answer: 1.56 µg/mL

Question: Which results are given for myxopyronin?
Answer: MICwild-type [1]: 0.20 µg/mL; MICwild-type [2]: 0.20 µg/mL; effect on nucleotide addition in transcription elongation [4]: do not inhibit transcription elongation; resistance rate (per generation) [5]: 3 × 10^−10 per generation

Question: How did the MICwild-type [1] turn out when ONC(=Nc1ccccc1)c1cccc(C(F)(F)F)c1 [CBR703] was run?
Answer: 6.25 µg/mL

Question: What about the MICwild-type [2] of the same molecule?
Answer: 6.25 µg/mL

Question: Which MIC [6] does the source give for CC[C@@H](C)[C@@H]1NC(=O)[C@H](NC(=O)[C@@H](C)[C@@H](O)C(C)C)[C@H](C)OC(=O)[C@H]2COC(=O)CNC(=O)/C=C/[C@@]3(CO3)[C@H](C)Oc3ccc(cc3)[C@H](NC1=O)C(=O)N(C)[C@H](Cc1ccccc1)C(=O)N[C@@H]([C@H](C)O)C(=O)N2 [SalA, Salinamide A] here?
Answer: 25 µg/mL (≈ 24.5 µM)

Question: What about the MIC [7] of the same molecule?
Answer: 1.56 µg/mL (≈ 1.53 µM)

Question: And the MIC [8]?
Answer: 6.25 µg/mL (≈ 6.13 µM)

Question: And the MIC [9]?
Answer: 25 µg/mL (≈ 24.5 µM)

Question: And the MIC [10]?
Answer: 25 µg/mL (≈ 24.5 µM)

Question: And the MIC [11]?
Answer: 50 µg/mL (≈ 49 µM)

Question: What about the MIC [12] of the same molecule?
Answer: 50 µg/mL (≈ 49 µM)

Question: And the MIC [13]?
Answer: 50 µg/mL (≈ 49 µM)

Question: What about the IC50 [14] of the same molecule?
Answer: 200 nM

Question: And the IC50 [15]?
Answer: 200 nM

Question: And the IC50 [16]?
Answer: > 100000 nM

Question: What about the “resistance level, all mutants” value [17] of the same molecule?
Answer: ≥ 16 fold

Question: And the “resistance level, nine high-level mutants” value ([17]; {})?
Answer: ≥ 128 fold

Question: What about the MICwild-type [1] of the same molecule?
Answer: 0.049 µg/mL

Question: What about the MICwild-type [2] of the same molecule?
Answer: 0.049 µg/mL

Question: What about the “frequency of spontaneous mutation to Sal-resistance” value [18] of the same molecule?
Answer: ~1 × 10^−9

Question: What about the Ki [19] of the same molecule?
Answer: 200 nM

Question: What about the mode of inhibition [19] of the same molecule?
Answer: noncompetitive

Question: What about the “effect on DNA synthesis ([14C]-thymidine incorporation)” value [20] of the same molecule?
Answer: no effect on DNA synthesis

Question: What about the “effect on RNA synthesis ([14C]-uracil incorporation)” value [20] of the same molecule?
Answer: inhibits RNA synthesis at the first time point following addition

Question: What about the “effect on protein synthesis ([14C]-amino acids incorporation)” value [20] of the same molecule?
Answer: inhibits protein synthesis at later time points

Question: What about the “effect on formation of RNAP-promoter open complex (RPo)” value [21] of the same molecule?
Answer: does not inhibit formation of a heparin-resistant RNAP-promoter open complex

Question: And the “effect on nucleotide addition in primer-dependent transcription initiation” value [3]?
Answer: inhibits all nucleotide-addition steps

Question: What about the “effect on nucleotide addition in de novo transcription initiation” value [22] of the same molecule?
Answer: inhibits all nucleotide-addition steps

Question: And the “effect on nucleotide addition in transcription elongation” value [4]?
Answer: inhibits nucleotide addition in transcription elongation

Question: And the effect on pyrophosphorolysis [23]?
Answer: inhibits not only the forward reaction of nucleotide addition but also the reverse reaction, pyrophosphorolysis

Question: What about the “requirement of RNAP trigger loop for inhibition” value [24] of the same molecule?
Answer: does not require the RNAP active-center subregion referred to as the ‘trigger loop’

Question: What about the MICwild-type [25] of the same molecule?
Answer: 0.049 µg/mL

Question: And the “resistance rate (per generation)” value ([5]; listed as Sal)?
Answer: 2 × 10^−9 per generation

Question: How did the MICwild-type [1] turn out when lipiarmycin [Lpm] was run?
Answer: 1.56 µg/mL

Question: What about the MICwild-type [2] of the same molecule?
Answer: 1.56 µg/mL

Question: And the “effect on nucleotide addition in transcription elongation” value [4]?
Answer: do not inhibit transcription elongation

Question: How did the MIC [6] turn out when CCC(C)C1NC(=O)C(NC(=O)C(C)C(O)C(C)C)C(C)OC(=O)C2COC(=O)CNC(=O)C=CC(O)(CCl)C(C)Oc3ccc(cc3)C(NC1=O)C(=O)N(C)C(Cc1ccccc1)C(=O)NC(C(C)O)C(=O)N2 (stereo not shown) [SalB, salinamide B] (X3-TI[X4][NMeF]TS; ester 1-C; linker 3-6 via G; configuration not given here) was run?
Answer: > 50 µg/mL

Question: And the MIC [9]?
Answer: 25 µg/mL (≈ 23.7 µM)

Question: And the MIC [10]?
Answer: 50 µg/mL (≈ 47.3 µM)

Question: What about the MIC [11] of the same molecule?
Answer: > 50 µg/mL

Question: What about the MIC [13] of the same molecule?
Answer: > 50 µg/mL

Question: What about the IC50 [14] of the same molecule?
Answer: 800 nM

Question: What about the IC50 [15] of the same molecule?
Answer: 500 nM

Question: What about the “resistance level, all mutants” value [17] of the same molecule?
Answer: ≥ 16 fold

Question: What about the MICwild-type [25] of the same molecule?
Answer: 0.20 µg/mL

Question: Which MIC [7] does the source give for CC[C@H](C)[C@H]1NC(=O)[C@@H](NC(=O)[C@H](C)[C@H](O)C(C)C)[C@@H](C)OC(=O)[C@@H]2COC(=O)CNC(=O)/C=C/[C@](O)(CBr)[C@@H](C)Oc3ccc(cc3)[C@H](NC1=O)C(=O)N(C)[C@@H](Cc1ccccc1)C(=O)N[C@H]([C@@H](C)O)C(=O)N2 [Sal-Br] ({Pentanoyl(2R-Me,3R-OH,4-Me)}-T[d(aIle)][X5][NMeF][d(aThr)]S; ester 1-C; linker 3-6 via G) here?
Answer: 3.13 µg/mL (≈ 2.84 µM)

Question: And the MIC [8]?
Answer: 6.25 µg/mL (≈ 5.68 µM)

Question: What about the MIC [9] of the same molecule?
Answer: 25 µg/mL (≈ 22.7 µM)

Question: And the IC50 [14]?
Answer: 700 nM

Question: And the IC50 [15]?
Answer: 900 nM
